Laboratory results from patent US6399643B1, “Spiroimidazolidine derivatives, their preparation, their use and pharmaceutical preparations formed therefrom” (Aventis Pharma Deutschland GmbH, priority 1999, dated 2002).
Counter-ions that a name gives are not always drawn.

Each molecule was assayed against T1, interaction between VCAM-1 and VLA-4 (Homo sapiens, UniProt P05556+P13612) (assay: U937/VCAM-1 cell adhesion test (adhesion of U937 cells to hVCAM-1(1-3)-IgG)). Conditions: inhibition of adhesion of human U937 cells (ATCC CRL 1593) to hVCAM-1(1-3)-IgG.
T1 construct: supplied in their natural form as surface molecules on human U937 cells; host or cells: human U937 cells (VLA-4, endogenous); the partner hVCAM-1(1-3)-IgG was made in house in transfected COS cells (ATCC CRL1651) and used as culture supernatant
Format: cell-based
Excerpt: A) U937/VCAM-1 Cell Adhesion Test
The test method used for the activity of the compounds of the formula I on the interaction between VCAM-1 and VLA-4 is the assay described below, which is specific for this interaction. The cellular binding components, that is the VLA-4 integrins, are supplied in their natural form as surface molecules on human U937 cells (ATCC CRL 1593), which belong to the leukocytes group. The specific binding components used are genetically engineered recombinant soluble fusion proteins, consisting of the extracytoplasmic domain of human VCAM-1 and the constant region of a human immunoglobulin of the subclass IgG1.
Assay for the Measurement of the Adhesion of U937 Cells (ATCC CRL 1593) to hVCAM-1 (1-3)-IgG
1. Preparation of Human VCAM-1(1-3)-IgG and Human CD4-IgG
A genetic construct for the expression of the extracellular domain of human VCAM-1, combined with the genetic sequence of the heavy chain of human immunoglobulin IgG1 (hinge, CH2 and CH3 regions) (from Brian Seed, Massachusetts General Hospital, Boston, USA; cf. Damle and Aruffo, Proc. Natl. Acad. Sci. USA 1991, 88, 6403), was employed. The soluble fusion protein hVCAM-1(1-3)-IgG contained the three aminoterminal extracellular immunoglobulin-like domains of human VCAM-1 (Damle and Aruffo, Proc. Natl. Acad. Sci. USA 1991, 88, 6403). CD4-IgG (Zettlmeissl et al., DNA and Cell Biology 1990, 9, 347) served as a fusion protein for negative controls. The recombinant proteins were expressed as soluble proteins after DEAE/dextran-mediated DNA transfection in COS cells (ATCC CRL1651) according to standard procedures (Ausubel et al., Current protocols in molecular biology, John Wiley & Sons, Inc., 1994).
2. Assay for the Measurement of the Adhesion of U937 Cells to hVCAM-1(1-3)-IgG
2.1 96-well microtiter test plates (Nunc Maxisorb) were incubated at room temperature for 1 hour with 100 μl/well of a goat-anti-human IgG antibody solution (10 μg/ml in 50 mM tris, pH 9.5). After removal of the antibody solution, washing was carried out once with PBS.
2.2 150 μl/well of a blocking buffer (1% BSA in PBS) were incubated on the plates at room temperature for 0.5 hour. After removal of the blocking buffer, washing was carried out once with PBS.
2.3 100 μl per well of a cell culture supernatant of transfected COS cells were incubated on the plates at room temperature for 1.5 hours. The COS cells were transfected with a plasmid which codes for the three N-terminal immunoglobulin-like domains of VCAM-1, coupled to the Fc portion of human IgG1 (hVCAM-1 (1-3)-IgG). The content of hVCAM-1(1-3)-IgG was about 0.5-1 μg/ml. After removing the culture supernatant, washing was carried out once with PBS.
2.4 The plates were incubated at room temperature for 20 minutes with 100 μl/well of Fc receptor blocking buffer (1 mg/ml of γ-globulin, 100 mM NaCl, 100 μM MgCl2, 100 μM MnCl2, 100 μM CaCl2, 1 mg/ml of BSA in 50 mM HEPES, pH 7.5). After removal of the Fc receptor blocking buffer, washing was carried out once with PBS.
2.5 20 μl of binding buffer (100 μM NaCl, 100 μM MgCl2, 100 μM MnCl2, 100 μM CaCl2, 1 mg/ml of BSA in 50 mM HEPES, pH 7.5) were initially introduced, and the substances to be tested were added in 10 μl of binding buffer and incubated for 20 minutes. The controls used were antibodies against VCAM-1(BBT, No. BBA6) and against VLA-4(Immunotech, No. 0764).
2.6 U937 cells were incubated in Fc receptor blocking buffer for 20 minutes and then pipetted in at a concentration of 1×10^6/ml and in an amount of 100 μl per well ([…]).
2.7 The plates were slowly immersed at an angle of 45° in stop buffer (100 mM NaCl, 100 μM MgCl2, 100 μM MnCl2, 100 μM CaCl2 in 25 mM Tris, pH 7.5) and shaken off. The process was repeated.
2.8 50 μl/well of a dye solution ([…] of Hoechst Dye 33258, 4% formaldehyde, 0.5% Triton X-100 in PBS) were then incubated on the plates for 15 minutes. […]

T1 sequence (P13612 34-1032): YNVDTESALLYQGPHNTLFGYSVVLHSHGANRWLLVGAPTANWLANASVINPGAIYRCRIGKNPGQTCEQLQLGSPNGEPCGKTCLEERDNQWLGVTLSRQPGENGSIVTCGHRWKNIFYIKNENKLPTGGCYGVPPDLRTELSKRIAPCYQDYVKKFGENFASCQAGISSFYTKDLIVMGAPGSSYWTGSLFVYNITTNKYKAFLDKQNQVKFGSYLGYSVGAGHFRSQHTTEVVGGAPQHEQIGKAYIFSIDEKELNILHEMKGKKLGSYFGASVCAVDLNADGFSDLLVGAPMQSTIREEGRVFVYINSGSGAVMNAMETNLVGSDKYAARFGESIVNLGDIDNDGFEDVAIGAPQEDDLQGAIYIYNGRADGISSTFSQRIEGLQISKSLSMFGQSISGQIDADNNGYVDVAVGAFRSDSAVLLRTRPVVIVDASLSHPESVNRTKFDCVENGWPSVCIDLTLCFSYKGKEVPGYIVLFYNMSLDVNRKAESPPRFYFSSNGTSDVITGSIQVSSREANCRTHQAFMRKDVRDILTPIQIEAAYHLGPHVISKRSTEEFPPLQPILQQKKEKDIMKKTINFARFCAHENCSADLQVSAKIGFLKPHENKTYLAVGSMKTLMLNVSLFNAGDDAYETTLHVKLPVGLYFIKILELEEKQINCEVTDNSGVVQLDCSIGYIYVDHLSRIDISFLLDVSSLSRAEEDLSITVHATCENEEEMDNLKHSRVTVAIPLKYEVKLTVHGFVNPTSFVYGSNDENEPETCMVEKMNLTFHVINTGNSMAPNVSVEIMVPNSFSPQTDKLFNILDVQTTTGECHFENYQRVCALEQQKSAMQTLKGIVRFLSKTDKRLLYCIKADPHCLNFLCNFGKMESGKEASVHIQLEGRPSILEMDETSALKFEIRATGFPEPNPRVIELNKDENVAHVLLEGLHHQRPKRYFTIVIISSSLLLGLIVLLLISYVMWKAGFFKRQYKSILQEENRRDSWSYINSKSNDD
T1 sequence (P05556 21-798): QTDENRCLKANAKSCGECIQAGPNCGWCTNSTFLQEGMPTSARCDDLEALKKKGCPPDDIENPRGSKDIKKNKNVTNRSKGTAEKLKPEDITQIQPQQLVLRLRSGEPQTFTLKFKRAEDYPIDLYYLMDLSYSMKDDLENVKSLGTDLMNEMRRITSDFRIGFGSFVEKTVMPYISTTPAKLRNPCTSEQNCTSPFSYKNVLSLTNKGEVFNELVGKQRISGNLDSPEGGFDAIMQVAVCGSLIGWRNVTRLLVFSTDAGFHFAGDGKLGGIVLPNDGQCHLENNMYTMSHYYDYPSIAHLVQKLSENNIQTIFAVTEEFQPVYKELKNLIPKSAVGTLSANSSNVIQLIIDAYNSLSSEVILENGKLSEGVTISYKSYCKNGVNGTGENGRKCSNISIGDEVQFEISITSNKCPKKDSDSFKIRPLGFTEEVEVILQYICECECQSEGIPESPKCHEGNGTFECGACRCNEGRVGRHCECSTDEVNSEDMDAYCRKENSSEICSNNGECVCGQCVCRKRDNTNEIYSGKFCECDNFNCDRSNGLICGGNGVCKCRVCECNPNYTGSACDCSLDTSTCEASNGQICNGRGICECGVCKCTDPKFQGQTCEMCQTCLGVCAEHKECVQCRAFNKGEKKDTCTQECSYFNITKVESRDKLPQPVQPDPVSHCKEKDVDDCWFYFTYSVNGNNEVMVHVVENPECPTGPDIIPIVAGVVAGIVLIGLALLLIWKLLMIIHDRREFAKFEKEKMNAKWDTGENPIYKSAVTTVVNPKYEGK

Point of comparison: `COc1ccc([C@H](CC(=O)O)NC(=O)[C@H](CC(C)C)N2C(=O)N(Cc3ccc(NC(=O)Nc4ccccc4C)cc3)C3(CCCCC3)C2=O)cc1` [Example 27, (S)-3-((S)-2-(4,4-Pentamethylene-3-(4-(3-(2-methylphenyl)ureido)benzyl)-2,5-dioxoimidazolidin-1-yl)-2-(2-methylpropyl)acetylamino)-3-(4-methoxyphenyl)propionic acid tromethamine salt], IC50 3.4 nM. Against it:
- COc1cccc([C@H](CC(=O)O)NC(=O)[C@H](CC(C)C)N2C(=O)N(Cc3ccc(NC(=O)Nc4ccccc4)cc3)C3(CCCCC3)C2=O)c1 [Example 22, (S)-3-((S)-2-(4,4-Pentamethylene-3-(4-(3-phenylureido)benzyl)-2,5-dioxoimidazolidin-1-yl)-2-(2-methylpropyl)acetylamino)-3-(3-methoxyphenyl)propionic acid] — 2-fold higher, 6.7 nM
- COc1ccc([C@H](CC(=O)O)NC(=O)[C@H](CC(C)C)N2C(=O)N(Cc3ccc(NC(=O)Nc4ccccc4)cc3)C3(CCCCC3)C2=O)cc1OC [Example 21, (S)-3-((S)-2-(4,4-Pentamethylene-3-(4-(3-phenylureido)benzyl)-2,5-dioxoimidazolidin-1-yl)-2-(2-methylpropyl)acetylamino)-3-(3,4-dimethoxyphenyl)propionic acid tromethamine salt] — within 1.5-fold, 3 nM
- COc1ccc([C@H](CC(=O)O)NC(=O)[C@H](CC(C)C)N2C(=O)N(Cc3ccc(NC(=O)Nc4ccccc4)cc3)C3(CCCCC3)C2=O)c(OC)c1 [Example 18, (S)-3-((S)-2-(4,4-Pentamethylene-3-(4-(3-phenylureido)benzyl)-2,5-dioxoimidazolidin-1-yl)-2-(2-methylpropyl)acetylamino)-3-(2,4-dimethoxyphenyl)propionic acid] — within 1.5-fold, 2.4 nM
- COc1ccc([C@H](CC(=O)O)NC(=O)[C@H](CC2CC2)N2C(=O)N(Cc3ccc(NC(=O)Nc4ccccc4C)cc3)C3(CCCCC3)C2=O)cc1OC [Example 39, (S)-3-((S)-2-(4,4-Pentamethylene-3-(4-(3-(2-methylphenyl)ureido)benzyl)-2,5-dioxoimidazolidin-1-yl)-2-cyclopropylmethylacetylamino)-3-(3,4-dimethoxyphenyl)propionic acid] — 4.2-fold lower, 0.8 nM
- COc1ccc([C@H](CC(=O)O)NC(=O)[C@H](CC(C)C)N2C(=O)N(Cc3ccc(NC(=O)Nc4ccccc4)cc3)C3(CCCCC3)C2=O)c(OC)c1 [Example 19, (S)-3-((S)-2-(4,4-Pentamethylene-3-(4-(3-phenylureido)benzyl)-2,5-dioxoimidazolidin-1-yl)-2-(2-methylpropyl)acetylamino)-3-(2,4-dimethoxyphenyl)propionic acid tromethamine salt] — within 1.5-fold, 3 nM
- CC(C)C[C@H](CC(=O)O)NC(=O)[C@H](CC(C)C)N1C(=O)N(Cc2ccc(NC(=O)Nc3ccccc3)cc2)C2(CCCCC2)C1=O [Example 4, (R)-3-((S)-2-(4,4-Pentamethylene-3-(4-(3-phenylureido)benzyl)-2,5-dioxoimidazolidin-1-yl)-2-(2-methylpropyl)acetylamino)-3-(2-methylpropyl)propionic acid] — 25-fold higher, 85.4 nM
- COc1ccc([C@H](CC(=O)O)NC(=O)[C@H](CC(C)C)N2C(=O)N(Cc3ccc(NC(=O)Nc4ccccc4C)cc3)C3(CCCCC3)C2=O)c(OC)c1 [Example 29, (S)-3-((S)-2-(4,4-Pentamethylene-3-(4-(3-(2-methylphenyl)ureido)benzyl-2,5-dioxoimidazolidin-1-yl)-2-(2-methylpropyl)acetylamino)-3-(2,4-dimethoxyphenyl)propionic acid tromethamine salt] — 1.8-fold lower, 1.9 nM
- Cc1ccccc1NC(=O)Nc1ccc(CN2C(=O)N([C@@H](CC(C)C)C(=O)N[C@@H](CC(=O)O)c3ccc4c(c3)OCCO4)C(=O)C23CCCCC3)cc1 [Example 34, (S)-3-((S)-2-(4,4-Pentamethylene-3-(4-(3-(2-methylphenyl)ureido)benzyl)-2,5-dioxoimidazolidin-1-yl)-2-(2-methylpropyl)acetylamino)-3-(3,4-ethylenedioxyphenyl)propionic acid] — 1.9-fold lower, 1.8 nM
- COc1ccc([C@H](CC(=O)O)NC(=O)[C@H](CC(C)C)N2C(=O)N(Cc3ccc(NC(=O)Nc4ccccc4C)cc3)C3(CCCCC3)C2=O)c(OC)c1 [Example 28, (S)-3-((S)-2-(4,4-Pentamethylene-3-(4-(3-(2-methyphenyl)ureido)benzyl)-2,5-dioxoimidazolidin-1-yl)-2-(2-methylpropyl)acetylamino)-3-(2,4-dimethoxyphenyl)propionic acid] — 1.6-fold lower, 2.1 nM
- Cc1ccccc1NC(=O)Nc1ccc(CN2C(=O)N([C@@H](CC(C)C)C(=O)N[C@@H](CC(=O)O)c3ccccc3)C(=O)C23CCCCC3)cc1 [Example 8, (S)-3-((S)-2-(4,4-Pentamethylene-3-(4-(3-(2-methylphenyl)ureido)benzyl)-2,5-dioxoimidazolidin-1-yl)-2-(2-methylpropyl)acetylamino)-3-phenylpropionic acid] — within 1.5-fold, 3.2 nM
- COc1ccc([C@H](CC(=O)O)NC(=O)[C@H](CC2CC2)N2C(=O)N(Cc3ccc(NC(=O)Nc4ccccc4C)cc3)C3(CCCCC3)C2=O)c(OC)c1 [Example 41, (S)-3-((S)-2-(4,4-Pentamethylene-3-(4-(3-(2-methylphenyl)ureido)benzyl)-2,5-dioxoimidazolidin-1-yl)-2-cyclopropylmethylacetylamino)-3-(2,4-dimethoxyphenyl)propionic acid sodium salt] — within 1.5-fold, 2.3 nM
- COc1ccc([C@H](CC(=O)O)NC(=O)[C@H](CC(C)C)N2C(=O)N(Cc3ccc(NC(=O)Nc4ccccc4C)cc3)C3(CCCCC3)C2=O)cc1OC [Example 33, (S)-3-((S)-2-(4,4-Pentamethylene-3-(4-(3-(2-methylphenyl)ureido)benzyl)-2,5-dioxoimidazolidin-1-yl)-2-(2-methylpropyl)acetylamino)-3-(3,4-dimethoxyphenyl)propionic acid sodium salt] — 2.6-fold lower, 1.3 nM
- CC(C)C[C@@H](C(=O)N[C@@H](CC(=O)O)c1ccccc1)N1C(=O)N(Cc2ccc(NC(=O)Nc3ccccc3)cc2)C2(CCCCC2)C1=O [Example 2, (S)-3-((S)-2-(4,4-Pentamethylene-3-(4-(3-phenylureido)benzyl)-2,5-dioxoimidazolidin-1-yl)-2-(2-methylpropyl)acetylamino)-3-phenylpropionic acid tromethamine salt] — within 1.5-fold, 4.5 nM
- CC(C)C[C@@H](C(=O)N[C@@H](CC(=O)O)c1ccccc1)N1C(=O)N(Cc2ccc(NC(=O)Nc3ccccc3)cc2)C2(CCCCC2)C1=O [Example 1, (S)-3-((S)-2-(4,4-Pentamethylene-3-(4-(3-phenylureido)benzyl)-2,5-dioxoimidazolidin-1-yl)-2-(2-methylpropyl)acetylamino)-3-phenylpropionic acid] — within 1.5-fold, 3.2 nM
